From ChEMBL document CHEMBL1145347, “A gatekeeper residue for inhibitor sensitization of protein tyrosine phosphatases” (Bioorg Med Chem Lett, 2006)

How the values were obtained:
[1] = target: T1, Tyrosine-protein phosphatase non-receptor type 1 (Homo sapiens, UniProt P18031); test: Inhibition of wild type PTP1B
T1 sequence (P18031 whole entry): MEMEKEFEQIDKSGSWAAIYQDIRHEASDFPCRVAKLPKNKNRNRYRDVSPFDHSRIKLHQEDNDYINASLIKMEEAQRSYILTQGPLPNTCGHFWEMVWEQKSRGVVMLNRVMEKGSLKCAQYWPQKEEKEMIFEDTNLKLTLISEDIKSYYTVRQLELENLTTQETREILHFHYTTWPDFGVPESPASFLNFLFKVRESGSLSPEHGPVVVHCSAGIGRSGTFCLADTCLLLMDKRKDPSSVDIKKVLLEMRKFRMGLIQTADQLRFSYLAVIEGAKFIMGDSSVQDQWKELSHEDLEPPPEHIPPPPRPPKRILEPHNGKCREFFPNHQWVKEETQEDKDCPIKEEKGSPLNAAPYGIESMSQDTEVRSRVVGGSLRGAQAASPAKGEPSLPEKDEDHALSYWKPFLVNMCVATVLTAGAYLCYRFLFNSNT

[2] = target: Tyrosine-protein phosphatase non-receptor type 1 (Homo sapiens, UniProt P18031, I219A); test: Inhibition of PTP1B I219A mutant
[3] = target: Tyrosine-protein phosphatase non-receptor type 1 (Homo sapiens, UniProt P18031, V49A); test: Inhibition of PTP1B V49A mutant
[4] = target: T2, Tyrosine-protein phosphatase non-receptor type 1 (Homo sapiens) (UniProt P18031); test: Selectivity for PTP1B V49A over wild type PTP1B
T2 sequence (whole entry): T1 sequence (P18031 whole entry)

[5] = system: Tyrosine-protein phosphatase non-receptor type 1 (Homo sapiens), P18031 [UNDEFINED MUTATION]; test: Selectivity for PTP1B I219A over wild type PTP1B
[6] = target: T3, Tyrosine-protein phosphatase non-receptor type 2 (Homo sapiens, UniProt P17706); test: Inhibition of TCPTP
T3 sequence (P17706 whole entry): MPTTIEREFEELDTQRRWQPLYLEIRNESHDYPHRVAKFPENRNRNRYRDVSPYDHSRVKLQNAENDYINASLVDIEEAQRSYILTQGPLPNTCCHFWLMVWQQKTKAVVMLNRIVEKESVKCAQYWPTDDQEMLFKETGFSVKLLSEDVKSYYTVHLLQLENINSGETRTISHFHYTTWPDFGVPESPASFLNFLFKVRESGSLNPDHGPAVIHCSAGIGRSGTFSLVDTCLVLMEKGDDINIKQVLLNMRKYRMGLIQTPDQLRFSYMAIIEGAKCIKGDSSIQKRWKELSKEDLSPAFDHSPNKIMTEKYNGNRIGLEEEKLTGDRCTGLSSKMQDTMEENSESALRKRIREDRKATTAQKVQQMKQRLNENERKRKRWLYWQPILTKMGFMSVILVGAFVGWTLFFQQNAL

[7] = target: Tyrosine-protein phosphatase non-receptor type 2 (Homo sapiens, UniProt P17706, I220A); test: Inhibition of TCPTP I220A mutant
Chain of Tyrosine-protein phosphatase non-receptor type 2 (Homo sapiens, UniProt P17706, I220A) (P17706 whole entry I220A): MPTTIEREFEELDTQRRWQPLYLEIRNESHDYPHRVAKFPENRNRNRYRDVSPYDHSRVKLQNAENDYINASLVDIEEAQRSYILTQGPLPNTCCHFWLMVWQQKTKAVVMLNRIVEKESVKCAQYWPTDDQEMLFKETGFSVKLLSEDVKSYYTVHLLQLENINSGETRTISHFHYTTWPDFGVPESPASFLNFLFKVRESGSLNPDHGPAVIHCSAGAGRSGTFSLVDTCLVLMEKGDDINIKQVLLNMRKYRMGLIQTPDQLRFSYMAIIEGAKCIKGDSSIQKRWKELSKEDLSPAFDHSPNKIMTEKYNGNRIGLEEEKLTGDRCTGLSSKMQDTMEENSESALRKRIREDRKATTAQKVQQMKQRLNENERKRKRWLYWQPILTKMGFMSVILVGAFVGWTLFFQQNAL

Chain of Tyrosine-protein phosphatase non-receptor type 1 (Homo sapiens, UniProt P18031, I219A) (P18031 whole entry I219A): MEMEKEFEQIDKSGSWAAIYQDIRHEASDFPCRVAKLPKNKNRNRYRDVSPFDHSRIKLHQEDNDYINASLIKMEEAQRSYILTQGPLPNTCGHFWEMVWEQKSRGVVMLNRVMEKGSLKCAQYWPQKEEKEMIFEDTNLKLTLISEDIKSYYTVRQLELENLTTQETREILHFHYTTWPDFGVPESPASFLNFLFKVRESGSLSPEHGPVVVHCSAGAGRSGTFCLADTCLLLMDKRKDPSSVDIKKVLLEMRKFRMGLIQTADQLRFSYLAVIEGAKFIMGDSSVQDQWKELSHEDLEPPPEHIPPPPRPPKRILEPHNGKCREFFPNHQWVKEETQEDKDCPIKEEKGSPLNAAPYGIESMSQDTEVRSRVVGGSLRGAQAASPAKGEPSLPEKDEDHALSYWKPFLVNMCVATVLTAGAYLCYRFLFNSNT
Chain of Tyrosine-protein phosphatase non-receptor type 1 (Homo sapiens, UniProt P18031, V49A) (P18031 whole entry V49A): as the sequence (P18031 whole entry I219A) above, with V49A, A219I counted along it

| Structure (SMILES) | Ki [1] [µM] | Ki [2] [µM] | Ki [3] [µM] | Selectivity ratio [4] | Selectivity ratio [5] | Ki [6] [µM] | Ki [7] [µM] |
| --- | --- | --- | --- | --- | --- | --- | --- |
| CC1(C)Cc2c(sc(NC(=O)C(=O)O)c2C(=O)O)C(C)(C)C1 | > 300 | 10 | 27 | > 10 | > 30 | – | – |
| O=C(O)C(=O)Nc1sc2c(c1C(=O)O)CCNC2 | 6 | 0.23 | – | – | – | 10 | 0.71 |
